Key:
[1] = test system: recombinant NL4-3 virus (Renilla luciferase) in MT-2 cells; test: HIV cell culture assay (antiviral activity, luciferase readout); type: cell-based; details: Renilla, NL43
Method in brief: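 Antiviral EC50 was derived via the median effect equation from luciferase signal. The signal came from MT-2 cultures infected for 4–5 days with a nef-deleted, Renilla luciferase-expressing NL4-3 reporter virus (made in 293T cells) in the presence of compound dilutions.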

[2] = Compound cytotoxicity, XTT-based colorimetric assay; type: cell-based; details: human; uninfected MT2 cells, day 4, XTT
Method in brief: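 Run under the antiviral-assay protocol but without virus. Viability was read on day 4 and CC50 values were derived from the readout.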

Compound	EC50 [1]	CC50 at 4 days [2]
Cc1cc(C)nc(-c2ccc3c(=O)n(-c4ccc(Cl)c5c(NS(C)(=O)=O)nn(CC(F)F)c45)c([C@H](Cc4cc(F)cc(F)c4)NC(=O)Cn4nc(C(F)F)c5c4C(F)(F)[C@@H]4C[C@H]54)nc3c2)c1 (atropisomer, axis not shown) [Example 137, N-[(1S)-1-{3-[4-chloro-1-(2,2-difluoroethyl)-3-methanesulfonamido-1H-indazol-7-yl]-7-(4,6-dimethylpyridin-2-yl)-4-oxo-3,4-dihydroquinazolin-2-yl}-2-(3,5-difluorophenyl)ethyl]-2-[(2S,4R)-9-(difluoromethyl)-5,5-difluoro-7,8-diazatricyclo[4.3.0.0^2,^4]nona-1(6),8-dien-7-yl]acetamide]	0.2 nM	> 500 nM
Cc1ccnnc1-c1ccc2c(=O)n(-c3ccc(Cl)c4c(NS(C)(=O)=O)nn(C)c34)c([C@H](Cc3cc(F)cc(F)c3)NC(=O)Cn3nc(C(F)F)c4c3C(F)(F)[C@@H]3C[C@H]43)nc2c1 (atropisomer, axis not shown; (P)) [Example 51, N—((S)-1-((3P)-3-(4-chloro-1-methyl-3-(methylsulfonamido)-1H-indazol-7-yl)-7-(4-methylpyridazin-3-yl)-4-oxo-3,4-dihydroquinazolin-2-yl)-2-(3,5-difluorophenyl)ethyl)-2-((3bS,4aR)-3-(difluoromethyl)-5,5-difluoro-3b,4,4a,5-tetrahydro-1H-cyclopropa[3,4]cyclopenta[1,2-c]pyrazol-1-yl)acetamide]	0.14 nM	> 500 nM
CCc1ncncc1-c1ccc2c(=O)n(-c3ccc(Cl)c4c(NS(C)(=O)=O)nn(C)c34)c([C@H](Cc3cc(F)cc(F)c3)NC(=O)Cn3nc(C(F)F)c4c3C(F)(F)[C@@H]3C[C@H]43)nc2c1 (atropisomer, axis not shown; (P)) [Example 60, N—((S)-1-((3P)-3-(4-chloro-1-methyl-3-(methylsulfonamido)-1H-indazol-7-yl)-7-(4-ethylpyrimidin-5-yl)-4-oxo-3,4-dihydroquinazolin-2-yl)-2-(3,5-difluorophenyl)ethyl)-2-((3bS,4aR)-3-(difluoromethyl)-5,5-difluoro-3b,4,4a,5-tetrahydro-1H-cyclopropa[3,4]cyclopenta[1,2-c]pyrazol-1-yl)acetamide]	0.077 nM	> 500 nM
Cn1nc(NS(C)(=O)=O)c2c(Cl)ccc(-n3c([C@H](Cc4cc(F)cc(F)c4)NC(=O)Cn4nc(C(F)F)c5c4C(F)(F)[C@@H]4C[C@H]54)nc4cc(-c5ncccc5C(F)(F)F)ccc4c3=O)c21 (atropisomer, axis not shown; (P)) [Example 30, N—((S)-1-((3P)-3-(4-chloro-1-methyl-3-(methylsulfonamido)-1H-indazol-7-yl)-4-oxo-7-(3-(trifluoromethyl)pyridin-2-yl)-3,4-dihydroquinazolin-2-yl)-2-(3,5-difluorophenyl)ethyl)-2-((3bS,4aR)-3-(difluoromethyl)-5,5-difluoro-3b,4,4a,5-tetrahydro-1H-cyclopropa[3,4]cyclopenta[1,2-c]pyrazol-1-yl)acetamide]	0.22 nM	> 500 nM
CS(=O)(=O)Nc1nn(CC(F)F)c2c(-n3c([C@H](Cc4cc(F)cc(F)c4)NC(=O)Cn4nc(C(F)F)c5c4C(F)(F)[C@@H]4C[C@H]54)nc4cc(-c5cccnn5)ccc4c3=O)ccc(Cl)c12 (atropisomer, axis not shown) [Example 135, N-[(1S)-1-{3-[4-chloro-1-(2,2-difluoroethyl)-3-methanesulfonamido-1H-indazol-7-yl]-4-oxo-7-(pyridazin-3-yl)-3,4-dihydroquinazolin-2-yl}-2-(3,5-difluorophenyl)ethyl]-2-[(2S,4R)-9-(difluoromethyl)-5,5-difluoro-7,8-diazatricyclo[4.3.0.0^2,^4]nona-1(6),8-dien-7-yl]acetamide]	0.054 nM	> 500 nM
Cc1cc(-c2ccc3c(=O)n(-c4ccc(Cl)c5c(NS(C)(=O)=O)nn(C)c45)c([C@H](Cc4cc(F)cc(F)c4)NC(=O)Cn4nc(C(F)F)c5c4C(F)(F)[C@@H]4C[C@H]54)nc3c2)nc(CO)n1 (atropisomer, axis not shown) [Example 118, N-[(1S)-1-[3-(4-chloro-3-methanesulfonamido-1-methyl-1H-indazol-7-yl)-7-[2-(hydroxymethyl)-6-methylpyrimidin-4-yl]-4-oxo-3,4-dihydroquinazolin-2-yl]-2-(3,5-difluorophenyl)ethyl]-2-[(2S,4R)-9-(difluoromethyl)-5,5-difluoro-7,8-diazatricyclo[4.3.0.0^2,^4]nona-1(6),8-dien-7-y]acetamide]	0.048 nM	> 500 nM
CN(c1ccc(-c2ccc3c(=O)n(-c4ccc(Cl)c5c(NS(C)(=O)=O)nn(C)c45)c([C@H](Cc4cc(F)cc(F)c4)NC(=O)Cn4nc(C(F)F)c5c4C(F)(F)[C@@H]4C[C@H]54)nc3c2)cc1)S(C)(=O)=O [Example 29, N—((S)-1-((3P)-3-(4-chloro-1-methyl-3-(methylsulfonamido)-1H-indazol-7-yl)-7-(4-(N-methylmethylsulfonamido)phenyl)-4-oxo-3,4-dihydroquinazolin-2-yl)-2-(3,5-difluorophenyl)ethyl)-2-((3bS,4aR)-3-(difluoromethyl)-5,5-difluoro-3b,4,4a,5-tetrahydro-1H-cyclopropa[3,4]cyclopenta[1,2-c]pyrazol-1-yl)acetamide]	0.29 nM	> 500 nM
CCc1ccnc(-c2ccc3c(=O)n(-c4ccc(Cl)c5c(NS(C)(=O)=O)nn(C)c45)c([C@H](Cc4cc(F)cc(F)c4)NC(=O)Cn4nc(C(F)F)c5c4C(F)(F)[C@@H]4C[C@H]54)nc3c2)n1 (atropisomer, axis not shown; (P)) [Example 43, N—((S)-1-((3P)-3-(4-chloro-1-methyl-3-(methylsulfonamido)-1H-indazol-7-yl)-7-(4-ethylpyrimidin-2-yl)-4-oxo-3,4-dihydroquinazolin-2-yl)-2-(3,5-difluorophenyl)ethyl)-2-((3bS,4aR)-3-(difluoromethyl)-5,5-difluoro-3b,4,4a,5-tetrahydro-1H-cyclopropa[3,4]cyclopenta[1,2-c]pyrazol-1-yl)acetamide]	0.058 nM	> 500 nM
Cn1nc(NS(C)(=O)=O)c2c(Cl)ccc(-n3c([C@H](Cc4cc(F)cc(F)c4)NC(=O)Cn4nc(C(F)F)c5c4C(F)(F)[C@@H]4C[C@H]54)nc4cc(-c5cccc(C6CC6)n5)ccc4c3=O)c21 (atropisomer, axis not shown; (P)) [Example 41, N—((S)-1-((3P)-3-(4-chloro-1-methyl-3-(methylsulfonamido)-1H-indazol-7-yl)-7-(6-cyclopropylpyridin-2-yl)-4-oxo-3,4-dihydroquinazolin-2-yl)-2-(3,5-difluorophenyl)ethyl)-2-((3bS,4aR)-3-(difluoromethyl)-5,5-difluoro-3b,4,4a,5-tetrahydro-1H-cyclopropa[3,4]cyclopenta[1,2-c]pyrazol-1-yl)acetamide]	0.33 nM	> 500 nM

— patent publication US11541055B2, “Inhibitors of human immunodeficiency virus replication” (ViiV Healthcare UK (No. 5) LIMITED, priority 2018, dated 2023)
